Data as given in US11268069B2, “Reprogramming methods and cell culture platforms” (Fate Therapeutics, Inc., priority 2014, dated 2022).

System: hiPSC clone FTi111
Experiment: Thaw of hiPSC clone FTi111 into various culture environments
Type: cell-based, human
Conditions: conventional culture with feeder cells

## O=C(NCc1ccccc1)c1csc(Nc2ccncn2)n1 [Thiazovivin]
  recovery of hiPSC colonies post thaw: only recovered in the presence of Thiazovivin
